{
  "source": "patent US5939560A",
  "about": "“Inhibitors of DP-mediated processes, compositions and therapeutic methods thereof” (Ferring B.V., priority 1993, dated 1999)",
  "data": [
    {"target": "pure human DP-IV (Homo sapiens, UniProt P27487)", "sequence (P27487 whole entry)": "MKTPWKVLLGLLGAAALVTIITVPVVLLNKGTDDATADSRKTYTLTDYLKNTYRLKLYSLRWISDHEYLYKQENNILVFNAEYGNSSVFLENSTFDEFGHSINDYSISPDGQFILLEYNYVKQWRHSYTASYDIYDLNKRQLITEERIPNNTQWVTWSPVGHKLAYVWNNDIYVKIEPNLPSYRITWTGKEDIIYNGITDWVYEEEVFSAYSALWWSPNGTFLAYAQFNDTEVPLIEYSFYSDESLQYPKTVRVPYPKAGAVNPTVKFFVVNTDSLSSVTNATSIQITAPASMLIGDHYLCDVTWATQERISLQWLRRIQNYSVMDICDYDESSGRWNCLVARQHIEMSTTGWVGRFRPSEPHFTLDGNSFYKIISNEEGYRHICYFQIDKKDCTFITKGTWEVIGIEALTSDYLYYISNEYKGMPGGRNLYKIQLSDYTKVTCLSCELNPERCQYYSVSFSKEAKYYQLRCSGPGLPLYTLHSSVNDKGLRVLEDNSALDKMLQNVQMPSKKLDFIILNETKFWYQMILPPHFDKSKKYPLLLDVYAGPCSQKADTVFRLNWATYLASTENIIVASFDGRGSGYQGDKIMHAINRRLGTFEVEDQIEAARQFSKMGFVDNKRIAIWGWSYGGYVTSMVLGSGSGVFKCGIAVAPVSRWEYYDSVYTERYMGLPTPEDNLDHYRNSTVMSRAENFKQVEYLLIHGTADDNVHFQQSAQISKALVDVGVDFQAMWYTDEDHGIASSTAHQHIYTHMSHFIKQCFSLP", "experiment": "Inhibition of pure human DP-IV in vitro, fluorescent substrate Ala-Pro-AFC, Ki from Dixon plots", "conditions": "not given", "procedure": "(§1) All compounds were tested in vitro against pure human DP-IV (purchased from M & E, Copenhagen, Denmark). […] Ki values were determined using Dixon plots.", "units": {"Ki": "nM"}, "values": [
      {"smiles": "N#C[C@@H]1CSCN1C(=O)[C@@H](N)C1CCCC1", "note": "[compound 23]", "Ki": 0.5},
      {"smiles": "N#C[C@@H]1CCCN1C(=O)[C@H]1CC=CC[C@@H]1N", "note": "[compound 35]", "Ki": 37},
      {"smiles": "N[C@H]1CCCC[C@@H]1C(=O)N1CCC[C@H]1C=O", "note": "[compound 38]", "Ki": 9.8},
      {"smiles": "CC1(C)C2CC3OB(C4CCCN4C(=O)C4CC=CCC4N)OC3(C)C1C2", "note": "(centres unmarked) [compound 44]", "Ki": 2},
      {"smiles": "N[C@@H](CCC(=O)NCCCCCC(=O)OCc1ccccc1)C(=O)N1CCCC1", "note": "[compound 59]", "Ki": 150},
      {"smiles": "N[C@@H](CCC(=O)NCCCCCCC(=O)NCCCCCC(=O)O)C(=O)N1CCCC1", "note": "[compound 66]", "Ki": 180},
      {"smiles": "N#C[C@@H]1CCCN1C(=O)[C@@H](N)CCC(=O)NCCCCCC(=O)OCc1ccccc1", "note": "[compound 97]", "Ki": 0.5},
      {"smiles": "N[C@@H](CCCCNC(=O)CCCNS(=O)(=O)c1c(F)c(F)c(F)c(F)c1F)C(=O)N1CCCC1", "note": "[compound 110, H-Lys[CO(CH2)3 NHSO2 Pfp]Prl]", "Ki": 250},
      {"smiles": "N#C[C@@H]1CCCN1C(=O)[C@@H](N)CCCCNC(=O)CCCCCCCN", "note": "[compound 136]", "Ki": 17},
      {"smiles": "CCCCCCO[C@H](C)[C@H](N)C(=O)N1CCCC1", "note": "[compound 143, H-Thr[(CH2)5 CH3]pyrrolidide]", "Ki": 940}
    ]},
    {"target": "pure human DP-IV (Homo sapiens, UniProt P27487)", "experiment": "Inhibition of pure human DP-IV in vitro, fluorescent substrate Ala-Pro-AFC, Ki from Dixon plots", "conditions": "read-out: Ki against DP-IV; pure human DP-IV, pH 7.8, substrate Ala-Pro-AFC, Dixon plots", "procedure": "as §1", "units": {"Ki": "nM"}, "values": [
      {"smiles": "CC[C@H](C)[C@H](N)/C=C1\\CCC[C@H]1C#N", "note": "[compound 150]", "Ki": 1700}
    ]}
  ]
}
